Source: patent publication US20220339122A1, “METHODS FOR THE TREATMENT OF DISEASES ASSOCIATED WITH DYSREGULATED ACTIVATION AND RECRUITMENT OF NEUTROPHILS” (Chang Gung University, priority 2021, published 2022)

What was measured:
[1] = Superoxide scavenging capacity, WST-1 reduction; assay type: biochemical; settings: WST-1 reduction at 450 nm
Procedure: FIG. 1 Bletinib suppressed superoxide anion production in stimulated human neutrophils. Neutrophils (6×10^5 cells/mL) were incubated with 0.1% DMSO or […] bletinib for 5 min before activation with stimuli. Superoxide anion production was induced by (A) fMLF, (B) MMK-1, (C) NaF, or (D) PMA and then measured using ferricytochrome c reduction method. (E) Cytotoxicity was assessed using LDH release. (F) Superoxide scavenging capacity of bletinib was assessed in a xanthine/xanthine oxidase cell-free system. WST-1 reduction was measured through spectrophotometry at 450 nm, with 20 U/mL superoxide dismutase as the positive control.

human neutrophils [2] = assay: Total ROS production, luminol-amplified chemiluminescence; assay type: cell-based; settings: 0.1-3 μM bletinib; 0.1 μM fMLF; dose-dependent
Procedure: Human neutrophils (2×10^6 cells/mL) were preincubated with 6 U mL^−1 horseradish peroxidase (HRP) and 37.5 μM luminol in a 96-well plate at 37° C. for 5 min. Cells were incubated with DMSO or bletinib for 5 min, followed by 0.1 μM fMLF stimulation. Chemiluminescence was then detected and analysed in real time on a 96-well chemiluminometer (Tecan Infinite F200 Pro; Mannedorf, Switzerland).

p-SFKs Y416 = assay: Immunoblotting of neutrophil lysates, SFKs phosphorylation; assay type: cell-based, human; settings: 10 μM bletinib; 0.1 μM fMLF
Procedure: (§1) Neutrophils incubated with bletinib or DMSO at 37° C. for 5 min were stimulated with 0.1 μM fMLF for 30 s. The proteins were separated from neutrophil lysates through electrophoresis (12% sodium dodecyl sulphate-polyacrylamide gel electrophoresis) and then transferred to nitrocellulose membranes. The target proteins were identified through immunoblotting with specific antibodies against p38, p-p38, Akt, p-Akt S473, ERK, p-ERK, INK, p-JNK, Src, p-SFKs Y416, p-Src Y416, Lyn, p-Lyn (Y396), Fgr, p-Fgr (Y412), Hck, p-Hck (Y410), Btk, p-Btk Y223, Vav, and p-Vav (Y174) as well as with HRP-conjugated secondary anti-rabbit antibody (Cell Signaling Technology). The signal intensity was detected and quantified using the UVP BioSpectrum Imaging System (Analytik Jena, USA).

p-ERK = assay: Immunoblotting of neutrophil lysates, ERK phosphorylation; assay type: cell-based, human; settings: 10 μM bletinib; 0.1 μM fMLF
Procedure: as §1

Src (Y416) = assay: Immunoblotting of neutrophil lysates, Src phosphorylation; assay type: cell-based, human; settings: 0.1 μM fMLF-stimulated neutrophils
Procedure: as §1

Akt (S473) = assay: Immunoblotting of neutrophil lysates, Akt phosphorylation; assay type: cell-based, human; settings: 10 μM bletinib; 0.1 μM fMLF
Procedure: as §1

human neutrophils [3] = assay: Neutrophil adhesion to bEnd.3 cells; assay type: cell-based; settings: 1-10 μM bletinib; fMLF/CB
Procedure: Human neutrophils (10^6 cells/mL) were labelled with Hoechst 33342 and then incubated with DMSO or Bletinib for 5 min. After centrifugation, the cells were resuspended and activated with 0.1 μM fMLF/1 μg/mL CB for 10 min before incubation with bEnd.3 cells at 37° C. for 30 min. After they were washed with HBSS, the cells were fixed with 4% paraformaldehyde and the neutrophils that adhered to the bEnd.3 cells were detected and quantified on a motorised inverted microscope (Olympus, Japan).
Adhesion and transmigration are both crucial steps in the neutrophil recruitment cascade during inflammation. In this example, to examine whether bletinib would interfere the adhesion and transmigration process, human neutrophils (10^6 cells/mL) were first labeled with Hoechst 33342, then pre-treated with bletinib (1-10 μM) and followed by stimulation with fMLF, then incubated with bEnd.3 cells in 37° C. for 30 min. […] Furthermore, IL-8 served as a chemotactic factor for the attraction of neutrophils.

CD18 (integrin β2) = assay: Surface CD18 expression, flow cytometry; assay type: cell-based, human; settings: 1-10 μM bletinib; 0.1 μM fMLF/CB
Procedure: Neutrophils (5×10^5 cells/mL) were incubated with bletinib or DMSO for 5 min and then activated through incubation with 0.1 μM fMLF/1 μg/mL CB for 5 min. After centrifugation at 200×g for 8 min at 4° C., the cells were resuspended in 5% bovine serum albumin with FITC-conjugated antibodies against CD18 or CD11b on ice in the dark for 15 min. The fluorescent intensity was then analysed through fluorescence-activated cell sorting.

BALB/c mice [4] = assay: LPS-induced ALI model in mice; assay type: in vivo; settings: 25 mg/kg intraperitoneal
Procedure: A total of 24 male BALB/c mice were randomly divided into four groups (6 mice/group): vehicle alone, bletinib alone, LPS control, and bletinib treatment (bletinib+LPS). The mice were starved overnight and then intraperitoneally injected with 50 μL of bletinib (25 mg/kg) or 50 μL of vehicle (10% DMSO). ALI was induced through intratracheal spraying of 50 μL of LPS (from Escherichia coli O111:B4; 2 mg/kg) or 50 μL of 0.9% saline (in vehicle and bletinib alone group) under general anaesthesia with xylazine (6 mg/kg) and Zoletil 50 (30 mg/kg). Five hours later, mouse lungs were harvested after sacrifice and were frozen for myeloperoxidase (MPO) activity assay; they were also fixed with 10% formalin for histological sectioning and immunofluorescence staining.
The harvested lung tissues were washed with phosphate-buffered saline (PBS) and fixed with 10% formalin for 24 h. The samples were subsequently dehydrated, embedded with paraffin, sliced into 3-μm-thick sections with a microtome, and placed on glass slides. These sections were stained using haematoxylin and eosin (H&E) and corresponding antibodies. Then, images were acquired through light microscopy.
For immunofluorescence staining, tissue sections were incubated with antibodies against H3 (citH3; citrulline R2+R8+R17) and Ly6G at dilutions of 1:800 and 1:200, respectively. Anti-IgG secondary antibodies labelled with a fluorescent dye (Alexa Fluor 488 for citH3 or Alexa Fluor 568 for Ly6G) were used at dilutions of 1:1000 and 1:500, respectively. Immunofluorescence images were acquired through confocal microscopy (LSM 510 Meta, Zeiss).
The mouse lung tissues were suspended in a 0.5% hexadecyltrimethylammonium bromide buffer (pH 6.0) and then homogenised through sonication. To evaluate MPO activity, the MPO substrate buffer (containing PBS, 0.0005% hydrogen peroxide, and 0.2 mg/mL 0-dianisidine hydrochloride) was added to the homogenised tissue, and the light absorbance at 460 nm was detected by spectrophotometry, after which, MPO activity was calculated with reference to the standard curve of human MPO activity.

BALB/c mice [5] = assay: LPS-induced mortality model in mice; assay type: in vivo; settings: 25 mg/Kg bletinib; LPS 5 mg/Kg; monitored 5 days; log-rank p=0.0085
Procedure: For the LPS-induced mortality model, mice were intraperitoneally injected with a single 50-μL dose of LPS (from Escherichia coli O111:B4; 5 mg/kg) or 0.9% saline (vehicle alone group). The mice were monitored for 5 days to determine the survival rate.

## COc1cc(O)cc(CCc2c(Cc3ccc(O)cc3)ccc(O)c2Cc2ccc(O)cc2)c1 [bletinib, 3,3′-dihydroxy-2′,6′-bis(p-hydroxybenzyl)-5-methoxybibenzyl]
[1]
  ROS scavenging activity in the cell-free xanthine and xanthine oxidase system: did not exhibit
Human neutrophils [2]
  ROS production, luminol-amplified chemiluminescence: significantly suppressed
p-SFKs Y416
  phosphorylation of SFKs: significantly inhibited
p-ERK
  phosphorylation of ERK: significantly inhibited
Src (Y416)
  phosphorylation of Src (Y416): significantly inhibited
Akt (S473)
  phosphorylation of Akt: but not
Human neutrophils [3]
  adhesion function of fMLF-activated neutrophils (adhered on bEnd.3 cells): inhibited
CD18 (integrin β2)
  expression of CD18 in fMLF-stimulated human neutrophils: significantly attenuated
BALB/c mice [4]; 5 h after LPS spraying
  MPO activity in the mouse lung tissues: significantly ameliorated
  total protein levels in the mouse lung tissues: significantly ameliorated
BALB/c mice [4]; intratracheal LPS for 5 h
  LPS-activated phosphorylation of Vav (p-Vav) in lung sections: attenuated
  LPS-induced NET formation (Ly6G+citH3+ cell accumulation) in lung: considerably reduced
  distortion of the pulmonary architecture (lung histology): significantly suppressed
BALB/c mice [5]
  survival time of LPS-primed mice: significantly prolonged
